Test results reported in patent publication US20250163029A1, “PYRIDONE OR PYRIMIDONE DERIVATIVE AND APPLICATION THEREOF” (Medshine Discovery Inc., priority 2022, published 2025).

Columns and labels:
SARS-CoV-2 replicon = experiment: microbe, parasite or virus in culture; format: cell-based; conditions: Severe acute respiratory syndrome coronavirus 2, Huh-7, 24 h
SARS-CoV-2 Mpro = molecular target: T1, SARS-CoV-2 Mpro (Severe acute respiratory syndrome coronavirus 2, UniProt P0DTD1); experiment: In vitro anti-novel coronavirus Mpro protease activity; format: biochemical; conditions: 25 nM Mpro protein, 25 μM substrate
T1 construct: Mpro protein was added to the 384-well assay plate; purchased WuXi AppTec
Experimental: (§1) The compound was dissolved in DMSO, and diluted in a 3-fold gradient with Echo655 according to the concentration requirements for the assay to 10 concentration points. Duplicate assays were set at each concentration. The diluted solution was added to a 384-well plate. Mpro protein and substrate were diluted with assay buffer (100 mM NaCl, 20 mM Tris-HCl, 1 mM EDTA). Mpro protein was added to the 384-well assay plate, and incubated with the compound for 30 min at room temperature. Then the substrate was added. The assay concentration of Mpro protein was 25 nM, and the assay concentration of substrate was 25 μM. After incubating for 60 minutes in a 30° C. constant temperature incubator, the fluorescence signal value of Ex/Em=340 nm/490 nm was detected by microplate reader. At the same time, the background well containing the substrate and compound but not containing Mpro protein was detected as control.
as §1, with “EDTA), and” for “EDTA).”, “plate,” for “plate, and”
2) Log (agonist) vs. response—variable slope nonlinear fitting analysis was carried out on the inhibition rate data (inhibition rate %) of the compound by using GraphPad Prism software, and the IC50 value of the compound was obtained.

| SMILES | EC50 (SARS-CoV-2 replicon) | IC50 (SARS-CoV-2 Mpro) |
| --- | --- | --- |
| Cn1cnc(Cc2cn(Cc3cc(F)c(F)cc3F)c(Nc3cc4cn(C)nc4cc3Cl)nc2=O)n1 [Compound 4] | 0.066 µM | 0.025 µM |
| Cn1cnc(Cc2cn(Cc3cc(F)c(F)c(F)c3F)c(Nc3cc4cn(C)nc4cc3Cl)nc2=O)n1 [Compound 7] | 0.082 µM | 0.062 µM |
| Cn1cnc(Cc2c(F)n(Cc3cc(F)c(F)cc3F)c(Nc3cc4cn(C)nc4cc3Cl)nc2=O)n1 [Compound 8] | 0.058 µM | 0.058 µM |
